Literature values in publication PMC6182381, “Population Pharmacokinetics and Exposure-Response Relationships of Naldemedine” (Pharmaceutical Research, 2018).

Design: method as in earlier work
Conditions: cited from earlier work

For `N=C(N)c1ccccc1` [Benzamidine], which “metabolite excreted in feces” value is on record?
Its value is ~20 % of the administered dose of naldemedine.

What about the “metabolite excreted in urine” value of the same molecule?
Its value is “approximately 32 % of the administered dose of naldemedine”.
